Laboratory results published in patent US20200207989A1, “FLUORESCENT PROBE FOR ALDH3A1 DETECTION” (The University of Tokyo, priority 2016, published 2020).

Experiments:
ALDH3A1 = target: T1, ALDH3A1 (Homo sapiens, UniProt P30838); assay: Kinetic characteristics (Michaelis-Menten Km, Kcat) with ALDH3A1; assay type: biochemical
T1 construct: purchased
T1 sequence (P30838 1-453): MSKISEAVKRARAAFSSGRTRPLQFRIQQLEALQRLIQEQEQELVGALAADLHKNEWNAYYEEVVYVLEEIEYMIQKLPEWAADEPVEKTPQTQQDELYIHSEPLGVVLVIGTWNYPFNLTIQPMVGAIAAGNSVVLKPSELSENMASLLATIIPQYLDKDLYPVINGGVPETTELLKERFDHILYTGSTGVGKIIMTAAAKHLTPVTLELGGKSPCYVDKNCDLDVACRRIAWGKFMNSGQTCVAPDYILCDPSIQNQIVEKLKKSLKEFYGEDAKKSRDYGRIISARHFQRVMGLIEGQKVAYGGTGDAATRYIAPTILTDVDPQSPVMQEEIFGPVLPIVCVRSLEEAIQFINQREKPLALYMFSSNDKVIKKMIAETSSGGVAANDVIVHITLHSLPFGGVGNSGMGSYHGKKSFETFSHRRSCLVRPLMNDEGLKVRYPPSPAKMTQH
Experimental: (§1) Human recombinant ALDH1A1/1A3/3A1 was purchased, and 100 mM of KCL, 2 mM of DTT, 1 mM of NAD(P), 10-100 nM of each ALDH, and 10-80 μM of each compound were mixed in Tris buffer (100 mM, pH 7.5), reacted for 30 minutes at 37° C., an equal amount of acetonitrile added, and the reaction stopped. The reaction solution was analyzed by UPLC/MS/MS (Waters). The UPCL chromatogram was carried out over five minutes at a flow rate of 800 μL/min by a linear gradient from 5% acetonitrile 0.01 M ammonium formate/water to 95% acetonitrile 0.01 M ammonium formate/water. An aldehyde-form and carboxylic acid-form probe were detected by the absorbance at a wavelength of 504 nm, and m/z of the MS spectrum at each peak was confirmed to agree with the expected m/z.
(§2) For the reaction, 100 mM of KCL, 2 mM of DTT, 1 mM of NAD(P), and five to six concentrations within the range of 10-100 nM of each ALDH and 0.1-80 μM of each probe were selected, mixed in Tris buffer (100 mM, pH 7.5), and reacted for five minutes at 37° C.; an equal amount of acetonitrile was added, and the reaction was stopped. Detection of the aldehyde-form/carboxylic acid-form probes was carried out using the same method as described above by UPLC/MS/MS. Km and Kcat were calculated by fitting the reaction rate at each probe concentration obtained to the Michaelis-Menten equation. A Kaleida Graph ver. 4.1 (Hulinks, Inc.) was used in fitting.
The Kcat ratio (Kcat of ALDH3A1/Kcat of ALDH1A1) was calculated for probe 1, probe 3, and probe 5 as an indicator of ALDH1A1/ALDH3A1 specificity because the probe reaction rate at the actual probe use concentration is believed to be close to Vmax since Km is relatively small (Table 5).

ALDH1A3 = target: T2, ALDH1A3 (Homo sapiens, UniProt P47895); assay: Kinetic characteristics (Michaelis-Menten Km, Kcat) with ALDH1A3; assay type: biochemical; details: five minutes at 37° C., Tris buffer pH 7.5
T2 construct: purchased
T2 sequence (P47895 1-512): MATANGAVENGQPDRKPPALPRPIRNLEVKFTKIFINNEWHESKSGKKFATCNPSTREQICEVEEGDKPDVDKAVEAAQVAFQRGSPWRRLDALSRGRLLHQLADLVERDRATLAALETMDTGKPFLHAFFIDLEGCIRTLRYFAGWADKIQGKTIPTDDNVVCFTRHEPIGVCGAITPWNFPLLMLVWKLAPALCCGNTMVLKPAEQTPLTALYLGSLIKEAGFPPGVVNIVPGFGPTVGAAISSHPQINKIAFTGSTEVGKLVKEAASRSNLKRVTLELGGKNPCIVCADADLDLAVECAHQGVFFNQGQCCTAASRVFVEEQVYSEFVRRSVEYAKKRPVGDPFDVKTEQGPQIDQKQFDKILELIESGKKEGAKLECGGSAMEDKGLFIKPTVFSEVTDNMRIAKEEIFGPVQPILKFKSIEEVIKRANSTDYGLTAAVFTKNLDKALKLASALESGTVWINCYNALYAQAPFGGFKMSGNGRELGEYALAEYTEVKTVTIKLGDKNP
Experimental: as §1, §2

ALDH1A1 [1] = target: T3, ALDH1A1 (Homo sapiens, UniProt P00352); assay: Reactivity of probes to recombinant ALDH1A1 (UPLC/MS/MS detection of aldehyde and carboxylic acid forms); assay type: biochemical; details: 10-100 nM ALDH, 10-80 μM compound, Tris buffer pH 7.5, 30 minutes at 37° C., ◯/X not defined by a legend
T3 construct: purchased
T3 sequence (P00352 1-501): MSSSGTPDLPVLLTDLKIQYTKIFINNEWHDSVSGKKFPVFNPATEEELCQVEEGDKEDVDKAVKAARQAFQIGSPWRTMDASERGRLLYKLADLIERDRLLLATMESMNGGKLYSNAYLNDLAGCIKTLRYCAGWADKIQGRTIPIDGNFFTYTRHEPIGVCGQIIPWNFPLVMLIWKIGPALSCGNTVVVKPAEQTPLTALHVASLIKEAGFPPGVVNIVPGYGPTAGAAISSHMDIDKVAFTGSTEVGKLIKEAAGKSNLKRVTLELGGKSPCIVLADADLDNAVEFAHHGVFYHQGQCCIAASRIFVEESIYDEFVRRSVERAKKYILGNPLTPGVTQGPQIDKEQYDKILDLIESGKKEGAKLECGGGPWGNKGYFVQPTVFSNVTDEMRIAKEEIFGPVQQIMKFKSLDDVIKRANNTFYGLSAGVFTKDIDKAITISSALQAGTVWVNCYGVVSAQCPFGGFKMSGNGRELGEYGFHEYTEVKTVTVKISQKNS
Experimental: as §1

ALDH1A1 [2] = target: T3, ALDH1A1; assay: Kinetic characteristics (Michaelis-Menten Km, Kcat) with ALDH1A1; assay type: biochemical; details: five minutes at 37° C., Tris buffer pH 7.5
Experimental: as §1, §2

OE21 cell line = assay: Cell imaging of OE21 cells against CB7 negative control; assay type: cell-based; details: probe 5: 40 μM, 90 minutes at 37° C., CB7 10 μM control
Experimental: 40 μM of probe 5 was added to culture medium (RPMI 1640, 10% FBS, 15 mM HEPES, phenol red-free). After culturing for 90 minutes at 37° C., the cells were washed using a chilled medium and examined under a confocal microscope. A sample with a specific ALDH3A1 inhibitor (1-[(4-fluorophenyl)sulfonyl]-2-methyl-1H-benzimidazole, CB7, 10 μM) added served as a negative control. Excitation was provided by a 488 nm laser, and observation was carried out at wavelengths of […] in detection.

[3] = five minutes at 37° C., Tris buffer pH 7.5

Substance: N-(4-formylbenzyl)-3-(1,3-dimethyl-4,4-difluoro-4-bora-3a,4a-diaza-s-indacen-5-yl)-propionamide [Probe 1]
- Kcat ALDH3A1 (ALDH3A1; [3]): 1.12 ± 0.08 s⁻¹
- Km (ALDH3A1; [3]): 58.9 ± 7.6 µM
- Kcat ratio (Kcat of ALDH3A1/Kcat of ALDH1A1) (ALDH3A1; indicator of ALDH1A1/ALDH3A1 specificity): 0.8
- Kcat ALDH1A3 (ALDH1A3): 0.029 ± 0.0015 s⁻¹
- Km (ALDH1A3): 1.64 ± 0.49 µM
- Reactivity to ALDH1A1 (ALDH1A1 [1]): ◯
- Reactivity to ALDH1A1 (ALDH1A1 [1]; listed as Compound 1): reacted with all three of the isoforms tested
- Kcat ALDH1A1 (ALDH1A1 [2]): 1.36 ± 0.045 s⁻¹
- Km (ALDH1A1 [2]): < 0.2 µM
- Brightness of cells in imaging compared to negative control (CB7) (OE21 cell line): no evident difference in brightness could be found in comparison to the negative control
